Laboratory results published in ChEMBL document CHEMBL1909046, “DrugMatrix in vitro pharmacology data”.

Key:
Androgen receptor = target: T1, Androgen receptor (Rattus norvegicus, UniProt P15207)
T1 sequence (P15207 whole entry): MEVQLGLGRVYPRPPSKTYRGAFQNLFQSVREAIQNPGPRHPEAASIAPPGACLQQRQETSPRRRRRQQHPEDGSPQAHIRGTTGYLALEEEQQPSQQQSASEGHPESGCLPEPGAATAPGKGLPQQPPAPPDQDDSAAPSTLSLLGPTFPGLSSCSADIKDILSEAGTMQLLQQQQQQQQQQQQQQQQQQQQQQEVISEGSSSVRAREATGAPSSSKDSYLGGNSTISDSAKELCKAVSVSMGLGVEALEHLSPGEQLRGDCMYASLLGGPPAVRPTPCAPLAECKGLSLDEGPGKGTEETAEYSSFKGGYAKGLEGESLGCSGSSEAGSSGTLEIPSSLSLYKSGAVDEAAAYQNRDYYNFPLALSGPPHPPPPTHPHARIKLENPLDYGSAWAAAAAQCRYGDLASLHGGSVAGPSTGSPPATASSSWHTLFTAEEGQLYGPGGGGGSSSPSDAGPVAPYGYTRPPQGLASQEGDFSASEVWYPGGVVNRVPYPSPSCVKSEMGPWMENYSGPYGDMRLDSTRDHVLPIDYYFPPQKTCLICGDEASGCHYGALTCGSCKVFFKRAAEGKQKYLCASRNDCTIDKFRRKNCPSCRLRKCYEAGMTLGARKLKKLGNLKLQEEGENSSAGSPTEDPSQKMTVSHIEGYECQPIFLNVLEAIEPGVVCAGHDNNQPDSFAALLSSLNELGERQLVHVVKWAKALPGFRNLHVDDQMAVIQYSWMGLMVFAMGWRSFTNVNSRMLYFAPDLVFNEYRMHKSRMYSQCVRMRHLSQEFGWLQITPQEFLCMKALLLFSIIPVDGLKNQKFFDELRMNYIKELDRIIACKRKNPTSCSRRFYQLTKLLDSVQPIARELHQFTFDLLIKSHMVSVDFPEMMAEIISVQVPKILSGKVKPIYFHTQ

Cytochrome P450 2C9 = Cytochrome P450 2C9 (Homo sapiens, UniProt P11712)
Cytochrome P450 2C19 = Cytochrome P450 2C19 (Homo sapiens, UniProt P33261)
Cytochrome P450 2C19, sequence (P33261 whole entry): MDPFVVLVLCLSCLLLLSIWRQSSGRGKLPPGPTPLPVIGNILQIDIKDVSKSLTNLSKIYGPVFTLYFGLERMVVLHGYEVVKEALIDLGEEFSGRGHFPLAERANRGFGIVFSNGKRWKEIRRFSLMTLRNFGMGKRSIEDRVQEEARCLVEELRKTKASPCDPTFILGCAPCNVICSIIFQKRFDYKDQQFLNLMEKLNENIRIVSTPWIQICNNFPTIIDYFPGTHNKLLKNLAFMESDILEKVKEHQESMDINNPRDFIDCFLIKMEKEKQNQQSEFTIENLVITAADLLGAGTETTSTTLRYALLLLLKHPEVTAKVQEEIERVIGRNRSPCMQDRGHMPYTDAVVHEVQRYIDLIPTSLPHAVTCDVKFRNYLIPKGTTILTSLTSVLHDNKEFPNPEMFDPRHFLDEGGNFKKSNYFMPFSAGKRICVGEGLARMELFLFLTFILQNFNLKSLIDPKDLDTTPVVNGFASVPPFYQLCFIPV

Cytochrome P450 2C9, sequence (P11712 whole entry): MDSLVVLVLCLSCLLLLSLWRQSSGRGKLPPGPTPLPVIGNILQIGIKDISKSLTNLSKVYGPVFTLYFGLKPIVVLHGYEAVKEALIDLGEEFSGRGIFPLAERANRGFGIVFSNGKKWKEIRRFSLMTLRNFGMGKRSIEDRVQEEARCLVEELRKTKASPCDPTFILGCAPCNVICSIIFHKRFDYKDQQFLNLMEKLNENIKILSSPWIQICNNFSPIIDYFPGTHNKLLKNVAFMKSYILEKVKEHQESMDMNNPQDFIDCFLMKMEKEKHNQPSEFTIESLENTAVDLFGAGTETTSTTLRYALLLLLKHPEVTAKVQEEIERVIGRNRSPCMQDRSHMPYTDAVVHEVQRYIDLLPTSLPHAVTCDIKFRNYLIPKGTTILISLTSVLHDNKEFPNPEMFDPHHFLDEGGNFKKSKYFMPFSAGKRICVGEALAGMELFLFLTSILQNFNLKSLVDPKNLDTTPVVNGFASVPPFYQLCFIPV

`CC(C)(c1ccc(O)cc1)c1ccc(O)cc1` [BISPHENOL A] was tested, and the IC50 (Androgen receptor) was 33.8 µM and the Ki (Androgen receptor) was 22.5 µM.
For `CN(CCOc1ccc(C[C@H](Nc2ccccc2C(=O)c2ccccc2)C(=O)O)cc1)c1ccccn1`, the IC50 (Cytochrome P450 2C9) was 4 µM.
For `COc1cc([C@@H]2c3cc4c(cc3[C@H](O)[C@H]3COC(=O)[C@H]23)OCO4)cc(OC)c1OC` [PODOFILOX], the IC50 (Cytochrome P450 2C9) was 4 µM and the IC50 (Cytochrome P450 2C19) was 5 µM.
